# Experimental data from article PMC3899824 (Investigational new drugs, 2013).
# Like-named read-outs stand apart in the source and are kept apart here.
# What was measured:
# [1] = SCID mice; for AUC: variance per Yuan in brackets
# [2] = tested on: MM.1S multiple myeloma cells; details: 24h, 25-100 nM
# PDGF-alpha = details: at pharmacologically-achievable concentrations; cited from earlier work
# [3] = tested on: 8226/IM10 myeloma cells (imexon-resistant); details: read-out: IC50, nM (Mean ± SEM); 8226/IM10, 72h, MTT
# tubulin = experiment: Cell-free tubulin polymerization assay; format: biochemical; details: 5 μM, 60m at 340 nm
# [4] = tested on: PC-3 (Prostate Cancer) human tumor xenograft; details: 55 mg/kg IP, Dailyx5, off 5d, repeat 1×
# MDA-MB231 breast cells = details: read-out: IC50, nM (Mean ± SEM); MDA-MB231, 72h, MTT
# [5] = tested on: H929 multiple myeloma cells; details: H929, 24h, 25-100 nM
# [6] = tested on: H69S small cell lung cancer cells; details: read-out: IC50, nM (Mean ± SEM), 72h, MTT
# DU-145 prostate cells = details: read-out: IC50, nM (Mean ± SEM); DU-145, 72h, MTT
smiles,measurement,setting,value
"COc1ccc(-c2cnc(-c3ccncc3-c3cccc(OC)c3)o2)cc1 [PC-046, 5-(4-methoxyphenyl)pyridine-4-yl]",Cmax,[1]; 100mg/kg IP,4010 ng/mL
same,T ½,[1]; 100mg/kg IP,5.17 h
same,Tmax,[1]; 100mg/kg IP,0.08 h
same,AUC,[1]; 100mg/kg IP,5.22(0.68) ^# hr* μg/mL
same,Clearance,[1]; 100mg/kg IV,332 mL/min/kg
same,Cmax,[1]; 100mg/kg IV,1660 ng/mL
same,T ½,[1]; 100mg/kg IV,8.40 h
same,Tmax,[1]; 100mg/kg IV,0.17 h
same,Vol. Dist.,[1]; 100mg/kg IV,240.3 L/kg
same,AUC,[1]; 100mg/kg IV,5.02 (0.29) ^# hr* μg/mL
same,F (bioavailabilty),[1]; 100mg/kg PO vs IV,0.71
same,Cmax,[1]; 100mg/kg PO,1550 ng/mL
same,T ½,[1]; 100mg/kg PO,3.17 h
same,Tmax,[1]; 100mg/kg PO,0.08 h
same,AUC,[1]; 100mg/kg PO,3.55(0.75) ^# hr* μg/mL
same,oral bioavailability,[1]; 100 mg/kg oral gavage compared to the IV route,71%
same,mean PC-046 concentrations in the femurs (bone marrow flushings),30 and 60 minutes after 100 mg/kg IP,approximately 0.07 μg/mL
same,femur concentrations,"30 and 60 minutes after 100 mg/kg IP, converted",195 nM
same,mean plasma concentration,30 minutes after 100 mg/kg IP,1750 ng/mL
same,mean plasma concentration,45 minutes after 100 mg/kg IP,1930 ng/mL
same,mean plasma concentration,60 minutes after 100 mg/kg IP,962 ng/mL
same,cell cycle effect (DNA content),[2],accumulation of cells in the G2/M-phase
same,kinase inhibition in vitro,PDGF-alpha,inhibit
same,IC50,[3],102 ± 27.5 nM
same,effect on tubulin polymerization,tubulin,inhibits tubulin polymerization
same,"Mean (SD), mm^3, DPC046 (tumor AUC)",[4]; control 10438.6 (4303.9),8238.1 (2506.2) mm^3
same,Tumor AUC % Change,"[4]; vs control, p NS",−21.10%
same,IC50,MDA-MB231 breast cells,206 ± 49.2 nM
same,cell cycle effect (DNA content),[5],accumulation of cells in the G2/M-phase
same,IC50,[6],240 ± 10.9 nM
same,IC50,DU-145 prostate cells,160 ± 39.4 nM
